“And” between values parts separate entries of the source, which are not always exact repeats. Equal values may be shown once. Read-outs that look alike come from different tables or passages of the source.
How the values were obtained:
[1] = In vivo bioconcentration test OECD TG 305, trout; parameters: species or system Oncorhynchus mykiss; conditions: rainbow trout (Oncorhynchus mykiss); for concentration at 7 d: day 7 (uptake); for concentration at 40 d: day 40 (depuration)
Experimental: (§1) In vivo BCF values for MXC and BaP in carp and trout were determined in bioconcentration tests with both species in accordance to OECD TG 305 ([OECD, 2012]). The studies were approved by the State Agency for Nature, Environment and Consumer Protection (LANUV) North Rhine-Westphalia. The fish were exposed to a single concentration of both test items in a flow-through system for 35 days. No control groups were used. Dosing was performed by a solid-phase desorption system which was integrated in the fresh water supply allowing for a constant delivery of test concentrations to the fish chambers. The procedure of column generated concentrations was described in detail by [Schlechtriem et al. (2017)]. For the present study, two packed columns containing each 500 g Florisil® loaded with 200 mg of either MXC or BaP were used for each fish chamber. The uptake (exposure) phase of the study was followed by a 35 days depuration phase in uncontaminated water. The flow-through rate was maintained at 38.6 L/h for carp and 30.1 L/h for trout throughout the test. […] Additional 2-4 fish were sampled each, at the start and at the end of the exposure period, as well as at the end of the depuration period for lipid analysis. The total lipid content of the fish was measured individually by gravimetric analysis according to [Smedes (1999)].
(§2) Water samples (400 ml) were taken from the test chambers at least three times per week. Preparation for chemical analysis was performed by liquid-liquid extraction using n-hexane (10 ml) containing deuterated MXC (35 ng). The purified organic phase was subdivided into two equal parts and evaporated to dryness under a stream of nitrogen. One part of the residue was dissolved in 200 µL DCM for MXC analysis. The other part was mixed with 1 ml ACN: water (8:2, v/v) and subjected to BaP analysis. Whole fish samples were prepared for chemical analysis individually. After grinding the tissue with the addition of dry ice in a Thermomix™ 31 (Vorwerk), the finely powdered homogenate was lyophilized using an AdVantage freeze dryer (Ismatec). Aliquots of the dry samples (0.5 g) were spiked with deuterated internal standards (5 ng MXC-d6 and 0.2 ng BaP-d12) and extracted three times with acetone: DCM (1:1, v/v) (10 ml). The pooled extracts were then extracted with ultra-pure water (45 ml) and mixed with sodium chloride (5 g) to remove acetone and matrix. The organic phase was concentrated (0.5 ml) and dissolved in cyclohexane: DCM (1:1, v/v) (4.2 ml). This was subjected to gel permeation chromatography (GPC) (GILSON system equipped with pump 307, syringe pump 402, GX-271 liquid handler, 508 interface module, and Trilution® LC software; column i. d. 1.5 cm, material Bio-Beads S-X3, 200–400 mesh, Bio-Rad, flow rate 2 ml/min). Eluates containing MXC (26–31 min retention time) and BaP (32–38 min retention time) were evaporated to dryness and dissolved in hexane (1 ml) and toluol (50 µL), respectively. The collected MXC extracts were further concentrated by solid-phase extraction (SPE, Sep-Pak® Vac 12cc, 2 g, silica cartridges, Waters) using DCM: n-hexane (50:50, v/v) as eluent. Eluent and hexane were used to equilibrate and condition the column before sample loading and subsequent washing with DCM: n-hexane (30:70, v/v). The eluate containing MXC was dried down and reconstituted in toluol (0.5 ml).
(§3) MXC in the organic phase of samples from the in vitro incubations and in DCM extracts of water samples from the in vivo bioconcentration tests were analyzed by gas chromatography-mass spectrometry (GC-MS). The GC-MS system consisted of a HP5890 series II GC coupled to a HP5972 mass sensitive detector (Hewlett-Packard). Separations were performed on 5% phenyl polysilphenylene-siloxane capillary columns (BPX-5, 30 m length x 0.25 mm i. d, 0.25 µm df, SGE). […]

rainbow trout = assay: In vivo bioconcentration test OECD TG 305, trout; parameters: species or system Oncorhynchus mykiss
Experimental: as §1, §2, §3

[2] = in vivo, Cf data, concentration measured in individual fish
[3] = in vivo, rainbow trout, read-out: Mean Cf
[4] = in vivo, rainbow trout, day 14 (uptake), read-out: Mean Cf
[5] = in vivo, rainbow trout, day 21 (uptake), read-out: Mean Cf
[6] = in vivo, rainbow trout, day 28 (uptake), read-out: Mean Cf
[7] = in vivo, rainbow trout, day 35 (end of uptake), read-out: Mean Cf
[8] = in vivo, rainbow trout, day 44 (depuration), read-out: Mean Cf
[9] = rainbow trout (Oncorhynchus mykiss), in vivo
[10] = in vivo, rainbow trout, BaP background corrected, read-out: Cf data, concentration measured in individual fish

c1ccc2c(c1)cc1ccc3cccc4ccc2c1c34 [BaP, benzo[a]pyrene]
concentration at 14 d [1, 2]: 0.079 ng/g | concentration at 21 d [1, 2]: 0.111 ng/g | concentration at 28 d [1, 2]: 0.126 ng/g | concentration at 35 d [1, 2]: 0.084 ng/g | concentration at 44 d [1, 2]: 0.004 ng/g | concentration at 7 d [1, 3]: 0.107 ng/g | concentration at 14 d [1, 4]: 0.07 ng/g | concentration at 21 d [1, 5]: 0.141 ng/g | concentration at 28 d [1, 6]: 0.121 ng/g | concentration at 35 d [1, 7]: 0.116 ng/g | concentration at 40 d [1, 3]: 0.011 ng/g | concentration at 44 d [1, 8]: 0.003 ng/g | concentration at 21 d ([1]; whole fish, other: exposure via water in a flow-through system, rainbow trout, day 21 (uptake), BaP background corrected, read-out: Cf data, concentration measured in individual fish): 0.107 ng/g | Cf,SS concentration in fish at steady-state (rainbow trout; [9]): 0.126 µg/kg | kB, in vivo estimate Trout (rainbow trout; [9]): 0.40 day⁻¹ | kB, in vivo estimate, range of 95% probability (rainbow trout; [9]): 0.13 to 1.2 day⁻¹ | kT depuration rate constant (rainbow trout; [9]): 0.427 day⁻¹ | kTG growth corrected depuration rate constant (rainbow trout; [9]): 0.401 day⁻¹ | BCFSSL lipid-normalized steady-state bioconcentration factor (rainbow trout; rainbow trout (Oncorhynchus mykiss), in vivo, 35 d): 42.8 L/kg | Cf data, concentration measured in individual fish (rainbow trout; rainbow trout (Oncorhynchus mykiss), in vivo, 44 d): 0.002 µg/kg

COc1ccc(C(c2ccc(OC)cc2)C(Cl)(Cl)Cl)cc1 [MXC, methoxychlor]
concentration at 7 d [1, 10]: 25.9 ng/g | concentration at 7 d [1, 3]: 23 ng/g | concentration at 14 d ([1]; in vivo, rainbow trout, day 14 (uptake), BaP background corrected, read-out: Cf data, concentration measured in individual fish): 27.1 ng/g | concentration at 14 d [1, 4]: 21.1 ng/g | concentration at 21 d ([1]; in vivo, rainbow trout, day 21 (uptake), BaP background corrected, read-out: Cf data, concentration measured in individual fish): 28 ng/g | concentration at 21 d [1, 5]: 21.5 ng/g | concentration at 28 d ([1]; in vivo, rainbow trout, day 28 (uptake), BaP background corrected, read-out: Cf data, concentration measured in individual fish): 53.2 ng/g | concentration at 28 d [1, 6]: 41.9 ng/g | concentration at 35 d [1, 7]: 46.4 ng/g | concentration at 40 d [1, 10]: 9.62 ng/g | concentration at 40 d [1, 3]: 13.8 ng/g | concentration at 44 d [1, 8]: 6.06 ng/g | concentration at 56 d ([1]; in vivo, rainbow trout, day 56 (depuration), outlier excluded, read-out: Mean Cf): 1.75 ng/g | concentration at 70 d ([1]; in vivo, rainbow trout, day 70 (end of depuration), read-out: Mean Cf): 1.01 ng/g | BCFSS (rainbow trout; Rainbow trout - high BCFSS): 3854 L/kg | Cf,SS concentration in fish at steady-state (rainbow trout; Rainbow trout - high BCFSS): 44.1 µg/kg | kTG growth corrected depuration rate constant (rainbow trout; Rainbow trout - high BCFSS): 0.201 day⁻¹ | kT depuration rate constant (rainbow trout; Rainbow trout - high BCFSS (kT-high, day 56-70 values excluded)): 0.227 day⁻¹ | BCFSSL lipid-normalized steady-state bioconcentration factor (rainbow trout; Rainbow trout - high BCFSS, 5% lipid content): 2122 L/kg | Cf,SS concentration in fish at steady-state (rainbow trout; rainbow trout): 30.76 µg/kg | kT depuration rate constant (rainbow trout; rainbow trout): 0.150 day⁻¹ | kTG growth corrected depuration rate constant (rainbow trout; rainbow trout): 0.124 day⁻¹ | BCFSSL lipid-normalized steady-state bioconcentration factor (rainbow trout; rainbow trout, 5% lipid content): 1479 L/kg | Cf data, concentration measured in individual fish (rainbow trout; rainbow trout, day 7 (uptake), BaP background corrected): 30.0 µg/kg and 18.7 µg/kg and 17.4 µg/kg | Cf data, concentration measured in individual fish (rainbow trout; rainbow trout, day 14 (uptake), BaP background corrected): 18.1 µg/kg and 25.4 µg/kg and 13.7 µg/kg | Cf data, concentration measured in individual fish (rainbow trout; rainbow trout, day 21 (uptake), BaP background corrected): 23.9 µg/kg and 14.5 µg/kg and 19.4 µg/kg | Cf data, concentration measured in individual fish (rainbow trout; rainbow trout, day 28 (uptake), BaP background corrected): 50.1 µg/kg and 34.5 µg/kg and 29.6 µg/kg | Cf data, concentration measured in individual fish (rainbow trout; rainbow trout, day 35 (end of uptake), BaP background corrected): 50.9 µg/kg and 49.5 µg/kg and 23.5 µg/kg and 61.7 µg/kg | Cf data, concentration measured in individual fish (rainbow trout; rainbow trout, day 40 (depuration), BaP background corrected): 15.9 µg/kg and 15.8 µg/kg | Cf data, concentration measured in individual fish (rainbow trout; rainbow trout, day 44 (depuration), BaP background corrected): 2.19 µg/kg and 7.53 µg/kg and 8.23 µg/kg and 6.28 µg/kg | Cf data, concentration measured in individual fish (rainbow trout; rainbow trout, day 56 (depuration), 5.42 identified as outlier and excluded): 5.42 µg/kg and 2.06 µg/kg and 2.23 µg/kg and 0.969 µg/kg | Cf data, concentration measured in individual fish (rainbow trout; rainbow trout, day 70 (end of depuration)): 2.46 µg/kg and 0.320 µg/kg and 0.237 µg/kg
